How the values were obtained:
[1] = biological target: 5-HT2A receptor (Homo sapiens, UniProt P28223); assay: [3H]ketanserin competition radioligand binding assay (SPA); conditions: control ligands
[2] = biological target: T1, 5-HT1A receptor (Homo sapiens, UniProt P08908); assay: cAMP-Glo assay in +5-HT1A / -5-HT1A CHO-K1 cells; format: cell-based; conditions: forskolin-stimulated +5-HT1A vs -5-HT1A cells, increasing ligand
T1 construct: host or cells: CHO-K1 (co-expressing Ga15)
T1 sequence (P08908 1-422): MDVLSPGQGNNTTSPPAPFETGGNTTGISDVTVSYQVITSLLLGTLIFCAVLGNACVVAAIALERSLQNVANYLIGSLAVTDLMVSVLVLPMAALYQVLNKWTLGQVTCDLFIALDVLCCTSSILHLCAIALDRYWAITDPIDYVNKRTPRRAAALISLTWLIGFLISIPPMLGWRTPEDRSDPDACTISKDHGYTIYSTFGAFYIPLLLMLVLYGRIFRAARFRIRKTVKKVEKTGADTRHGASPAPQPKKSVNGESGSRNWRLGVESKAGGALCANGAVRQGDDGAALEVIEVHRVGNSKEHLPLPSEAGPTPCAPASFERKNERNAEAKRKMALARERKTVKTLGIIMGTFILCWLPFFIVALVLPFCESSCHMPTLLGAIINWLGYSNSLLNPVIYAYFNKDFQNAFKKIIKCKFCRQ

Chain of 5-HT2A receptor (P28223 whole entry): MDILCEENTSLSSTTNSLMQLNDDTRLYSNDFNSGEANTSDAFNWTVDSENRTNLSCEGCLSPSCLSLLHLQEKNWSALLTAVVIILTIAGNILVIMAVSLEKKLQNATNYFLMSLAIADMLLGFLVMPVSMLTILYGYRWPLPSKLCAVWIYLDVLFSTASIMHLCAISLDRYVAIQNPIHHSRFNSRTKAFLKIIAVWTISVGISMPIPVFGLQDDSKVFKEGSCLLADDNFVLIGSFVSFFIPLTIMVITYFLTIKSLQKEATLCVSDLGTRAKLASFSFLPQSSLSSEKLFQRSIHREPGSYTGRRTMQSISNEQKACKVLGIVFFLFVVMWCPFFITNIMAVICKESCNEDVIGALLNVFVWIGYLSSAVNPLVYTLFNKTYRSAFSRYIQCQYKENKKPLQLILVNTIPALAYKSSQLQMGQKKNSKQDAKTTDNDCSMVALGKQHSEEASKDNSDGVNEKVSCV

SMILES | 5-HT2A competition binding (in words) [1] | cAMP level / 5-HT1A receptor modulation (in words) [2]
CN(C)CCc1c[nH]c2cccc(O)c12 [psilocin] | positive control (binding) | reduction in cAMP levels
N[C@@H](Cc1c[nH]c2ccccc12)C(=O)O [tryptophan] | negative control (no binding) | no reduction in cellular cAMP levels
NCCc1c[nH]c2ccc(O)cc12 [serotonin] | – | reduction in cAMP levels
